Experimental data: the supplement of paper PMC10307832

Key:
Experiment in all cases: relative viability (nuclei count vs DMSO), 5 days (fraction); higher = more cells survive
[1] = compound: C1=CC=C(C(=C1)C2=CC=C(C=C2)C3=CSC4=C3C(=C(C(=O)N4)C#N)O)O + Nc1nc2[nH]cc(CCc3ccc(C(=O)N[C@@H](CCC(=O)O)C(=O)O)cc3)c2c(=O)[nH]1 [Pemetrexed] (partner 0.2 µM)
Method in brief: (§1)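 Lung cancer cell lines were pin-tool dosed in 1536-well plates on the day after seeding, with either a lone drug or a fixed anchor-drug dose plus five library-drug doses (not always all listed) in √10 steps. Nuclei were counted on 4× images after 5 days. Relative viability is the ratio of treated-well to vehicle-well nuclei counts, with each value a median of duplicate plates.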

TGX 221 + Pictilisib = compound: CC1=CN2C(=O)C=C(N=C2C(=C1)C(C)NC3=CC=CC=C3)N4CCOCC4 [TGX 221] + CS(=O)(=O)N1CCN(Cc2cc3nc(-c4cccc5[nH]ncc45)nc(N4CCOCC4)c3s2)CC1 [Pictilisib] (partner 1 µM)
Method in brief: as §1

[2] = compound: C1=CC=C(C(=C1)C2=CC=C(C=C2)C3=CSC4=C3C(=C(C(=O)N4)C#N)O)O + COc1cccc2cc(-c3nc([C@H]4CC[C@H](C(=O)O)CC4)n4ncnc(N)c34)[nH]c12 [OSI-027] (partner 0.5 µM)
Method in brief: as §1

[3] = compound: C1=CC=C(C(=C1)C2=CC=C(C=C2)C3=CSC4=C3C(=C(C(=O)N4)C#N)O)O + O=C(CCCCCCC(=O)Nc1ccccc1)NO [Vorinostat] (partner 1 µM)
Method in brief: as §1

Row | Cell Line | relative viability ([1]; first compound 0.08 µM) | relative viability ([1]; first compound 0.253 µM) | relative viability ([1]; first compound 0.8 µM) | relative viability ([1]; first compound 2.53 µM) | relative viability ([1]; first compound 8 µM) | relative viability (TGX 221 + Pictilisib; first compound 0.08 µM) | relative viability (TGX 221 + Pictilisib; first compound 0.253 µM) | relative viability (TGX 221 + Pictilisib; first compound 0.8 µM) | relative viability (TGX 221 + Pictilisib; first compound 2.53 µM) | relative viability (TGX 221 + Pictilisib; first compound 8 µM) | relative viability ([2]; first compound 0.08 µM) | relative viability ([2]; first compound 0.253 µM) | relative viability ([2]; first compound 0.8 µM) | relative viability ([2]; first compound 2.53 µM) | relative viability ([2]; first compound 8 µM) | relative viability ([3]; first compound 0.08 µM) | relative viability ([3]; first compound 0.253 µM) | relative viability ([3]; first compound 0.8 µM) | relative viability ([3]; first compound 2.53 µM) | relative viability ([3]; first compound 8 µM)
1 | NCI-H1734 | 0.396 | 0.403 | 0.462 | 0.401 | 0.448 | 0.452 | 0.41 | 0.435 | 0.377 | 0.456 | 0.642 | 0.608 | 0.618 | 0.595 | 0.432 | 0.747 | 0.767 | 0.751 | 0.803 | 0.765
2 | NCI-H1755 | 0.463 | 0.469 | 0.545 | 0.439 | 0.714 | 0.412 | 0.381 | 0.406 | 0.372 | 0.425 | 0.762 | 0.848 | 0.616 | 0.686 | 0.751 | 0.822 | 0.913 | 0.735 | 0.761 | 0.687
3 | NCI-H1793 | 0.69 | 0.862 | 0.713 | 0.687 | 0.802 | 0.274 | 0.303 | 0.317 | 0.413 | 0.291 | 0.281 | 0.378 | 0.267 | 0.263 | 0.252 | 0.58 | 1.05 | 0.497 | 0.634 | 0.681
4 | NCI-H1915 | 0.437 | 0.443 | 0.486 | 0.481 | 0.506 | 0.892 | 0.895 | 1 | 0.805 | 0.949 | 0.645 | 0.622 | – | 0.657 | 0.534 | 0.455 | 0.468 | 0.449 | 0.552 | 0.46
5 | NCI-H1944 | 0.609 | 0.697 | 0.571 | 0.646 | 0.632 | 0.335 | 0.339 | 0.361 | 0.342 | 0.335 | 0.39 | 0.436 | 0.336 | 0.367 | 0.4 | 0.682 | 0.637 | 0.571 | 0.479 | 0.478
6 | NCI-H1975 | 0.312 | 0.288 | 0.302 | 0.307 | 0.295 | 0.282 | 0.289 | 0.271 | 0.229 | 0.285 | 0.535 | 0.823 | 0.689 | 0.709 | 0.676 | 0.665 | 0.78 | 0.736 | 0.81 | 0.677
7 | NCI-H1993 | 0.585 | 0.939 | 0.551 | 0.54 | 0.497 | 0.709 | 0.886 | 0.759 | 0.864 | 0.787 | 0.442 | 0.539 | 0.543 | 0.595 | 0.595 | 0.57 | 1.02 | 0.979 | 0.845 | 0.644
8 | NCI-H2009 | 0.97 | 1.04 | 1.02 | 1.1 | 1.08 | 0.814 | 0.746 | 0.893 | 0.774 | 0.662 | 0.624 | 0.63 | 0.555 | 0.612 | 0.509 | 0.728 | 0.715 | 0.859 | 0.716 | 0.638
9 | NCI-H2023 | 0.188 | 0.296 | 0.368 | 0.208 | 0.323 | 0.23 | 0.244 | 0.252 | 0.215 | 0.228 | 0.32 | 0.441 | 0.404 | 0.382 | 0.317 | 0.677 | 0.793 | 0.56 | 0.725 | 0.453
10 | NCI-H2085 | 0.838 | 1.01 | 0.801 | 0.886 | 0.818 | 0.424 | 0.444 | 0.439 | 0.425 | 0.46 | 0.866 | 1.02 | 0.661 | 0.627 | 0.512 | 0.726 | 0.893 | 0.764 | 0.784 | 0.714
11 | NCI-H2087 | 0.608 | 0.671 | 0.675 | 0.67 | 0.747 | 0.989 | 0.966 | 0.883 | 0.811 | 0.87 | 0.551 | 0.772 | 0.568 | 0.57 | 0.358 | 0.336 | 0.672 | 0.685 | 0.764 | 0.918
12 | NCI-H2126 | 0.837 | 0.823 | 0.694 | 0.664 | 0.513 | 0.452 | 0.498 | 0.488 | 0.458 | 0.518 | 0.639 | 0.718 | 0.654 | 0.737 | 0.708 | 0.846 | 0.787 | 0.803 | 0.832 | 0.732
13 | NCI-H2170 | 0.279 | 0.268 | 0.285 | 0.254 | 0.261 | 0.312 | 0.288 | 0.325 | 0.376 | 0.357 | 0.76 | 0.74 | 0.676 | 0.677 | 0.754 | 0.9 | 0.819 | 0.921 | 0.778 | 0.616
14 | NCI-H2228 | 0.371 | 0.454 | 0.351 | 0.332 | 0.367 | 0.348 | 0.452 | 0.448 | 0.282 | 0.314 | 0.6 | 0.785 | 0.576 | 0.491 | 0.372 | 0.555 | 0.557 | 0.648 | 0.524 | 0.36
15 | NCI-H2347 | 0.367 | 0.429 | 0.403 | 0.444 | 0.406 | 0.608 | 0.798 | 0.433 | 0.58 | 0.428 | 0.454 | 0.572 | 0.348 | 0.419 | 0.378 | 0.507 | 0.59 | 0.55 | 0.539 | 0.568
16 | NCI-H2405 | 1.01 | – | 1.07 | 0.975 | 0.948 | 0.36 | 0.499 | 0.426 | 0.398 | 0.366 | 0.648 | 0.656 | 0.607 | 0.679 | 0.65 | 0.983 | – | 0.956 | 0.955 | 0.999
